Target: T1, recombinant human 5-lipoxygenase (Homo sapiens, UniProt P09917)
T1 construct: made in house; host or cells: Sf9 cells infected with recombinant baculovirus rvH5LO (8-1)
T1 sequence (P09917 1-674): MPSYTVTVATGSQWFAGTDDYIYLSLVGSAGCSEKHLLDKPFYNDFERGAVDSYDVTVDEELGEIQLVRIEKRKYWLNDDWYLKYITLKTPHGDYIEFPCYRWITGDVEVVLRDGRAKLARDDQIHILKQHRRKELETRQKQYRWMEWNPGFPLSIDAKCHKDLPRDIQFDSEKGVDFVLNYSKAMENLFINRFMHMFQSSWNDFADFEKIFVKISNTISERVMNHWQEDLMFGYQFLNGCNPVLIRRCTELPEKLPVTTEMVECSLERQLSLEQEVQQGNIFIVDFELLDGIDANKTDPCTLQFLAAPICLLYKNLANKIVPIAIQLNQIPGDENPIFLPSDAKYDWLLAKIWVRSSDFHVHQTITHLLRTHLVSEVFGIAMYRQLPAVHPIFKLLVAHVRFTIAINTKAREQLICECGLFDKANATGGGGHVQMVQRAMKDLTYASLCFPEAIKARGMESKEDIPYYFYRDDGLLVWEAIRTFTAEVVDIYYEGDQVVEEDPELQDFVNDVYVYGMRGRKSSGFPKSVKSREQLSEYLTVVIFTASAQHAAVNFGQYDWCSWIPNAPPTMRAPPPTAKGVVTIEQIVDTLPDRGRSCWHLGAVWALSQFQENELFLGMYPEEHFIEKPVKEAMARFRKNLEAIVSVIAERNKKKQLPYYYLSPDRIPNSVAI
Assay: Human 5-Lipoxygenase Enzyme Assay
Format: biochemical
Details: spectrophotometric assay, purified recombinant human 5-lipoxygenase, 20 μM arachidonic acid
Experimental: Compounds of this invention can be tested using the following assays to determine their mammalian leukotriene biosynthesis inhibiting activity.
Human 5-Lipoxygenase Enzyme Assay
The activity of 5-lipoxygenase was measured using a spectrophotometric assay and recombinant human 5-lipoxygenase as a source of enzyme. Human 5-lipoxygenase was purified from Sf9 cells infected with the recombinant baculovirus rvH5LO (8-1) containing the coding sequence for human 5-lipoxygenase as described by Percival et al., (Eur. J. Biochem 210, 109-117, 1992). The enzymatic activity was measured using a spectrophotometric assay from the optimal rate of conjugated diene formation (absorbance at 238 nm) using the procedure described in Riendeau et al. (Biochem. Pharmacol. 38, 2313-2321, 1989) with minor modifications. The incubation mixture contained 25 mM potassium phosphate, pH 7.5, 0.1 mM EDTA, 0.3 mM CaCl2, 24 μg/ml phosphatidylcholine, 0.1 mM ATP, 0.5 mM DTT, 20 μM arachidonic acid (2 μl from a 100-fold solution in ethanol), inhibitor (2 μl aliquot from a 100-fold solution in DMSO) and an aliquot of purified 5-lipoxygenase. Reactions were initiated by the addition of the purified 5-lipoxygenase and the rate of conjugated diene production was followed for 5 minutes at room temperature. The reaction was performed in a Costar UV plate (Cat. # 3635) and the absorbance changes at 238 nm were recorded with a Molecular Devices UV/VIS 96 well spectrophotometer (Spectra Max 190) using SOFTmax PRO software. Enzymatic activity was calculated from the optimal rate of the reaction by a linear fit of the increase in absorbance at 238 nm over 36 seconds. When the rate of diene formation is low (<0.01 Absorbance Unit/min) the linear fit is performed over 180 seconds.

Compound	IC50 [nM]
CC[C@](O)(c1cn(Cc2ccc3c(-c4cccc(F)c4)cc(=O)oc3c2)nn1)C(F)(F)F [Example 1, (S)-4-(3-fluorophenyl)-7-({4-[1-hydroxy-1-(trifluoromethyl)propyl]-1H-1,2,3-triazol-1-yl}methyl)-2H-chromen-2-one]	38
CC[C@](O)(c1cn(Cc2ccc3c(-c4ccc(F)cc4)cc(=O)oc3c2)nn1)C(F)(F)F [Example 2, (S)-4-(4-Fluorophenyl)-7-[4-(1-hydroxy-1-trifluoromethyl-propyl)-[1,2,3]triazol-1-ylmethyl]-chromen-2-one]	50
CC[C@](O)(c1cn(Cc2ccc3c(-c4ccccc4F)cc(=O)oc3c2)nn1)C(F)(F)F [Example 3, (S)-4-(2-Fluoro-phenyl)-7-[4-(1-hydroxy-1-trifluoromethyl-propyl)-[1,2,3]triazol-1-ylmethyl]-chromen-2-one]	1210
CC[C@](O)(c1cn(Cc2ccc3c(-c4ccccc4)cc(=O)oc3c2)nn1)C(F)(F)F [Example 5, (S)-7-[4-(1-Hydroxy-1-trifluoromethyl-propyl)-[1,2,3]triazol-1-ylmethyl]-4-phenyl-chromen-2-one]	45
CC[C@](O)(c1cn(Cc2ccc3c(-c4ccsc4)cc(=O)oc3c2)nn1)C(F)(F)F [Example 8, (S)-7-[4-(1-Hydroxy-1-trifluoromethyl-propyl)-[1,2,3]triazol-1-ylmethyl]-4-thiophen-3-yl-chromen-2-one]	50
CCC(O)(CC)c1cn(Cc2ccc3c(-c4cccc(F)c4)cc(=O)oc3c2)nn1 [Example 12, 7-[4-(1-Ethyl-1-hydroxy-propyl)-[1,2,3]triazol-1-ylmethyl]-4-(3-fluoro-phenyl)-chromen-2-one]	324
CCC(O)(CC)c1cn(Cc2ccc3c(-c4ccc(F)cc4)cc(=O)oc3c2)nn1 [Example 16, 7-[4-(1-Ethyl-1-hydroxy-propyl)-[1,2,3]triazol-1-ylmethyl]-4-(4-fluoro-phenyl)-chromen-2-one]	442
O=c1cc(-c2cccc(F)c2)c2ccc(Cn3cc(Cc4ccccc4)nn3)cc2o1 [Example 22, 7-[(4-benzyl-1H-1,2,3-triazol-1-yl)methyl]-4-(3-fluorophenyl)-2H-chromen-2-one]	951
O=c1cc(-c2ccc(F)cc2)c2ccc(Cn3cc(C(O)(C4CC4)C4CC4)nn3)cc2o1 [Example 26, 7-[4-(Dicyclopropyl-hydroxy-methyl)-[1,2,3]triazol-1-ylmethyl]-4-(4-fluoro-phenyl)-chromen-2-one]	98
CCC(O)(c1nnn(Cc2ccc3c(-c4cccc(F)c4)cc(=O)oc3c2)c1C)C(F)(F)F (stereo not drawn) [Example 27, 4-(3-fluorophenyl)-7-{[4-(1-hydroxy-1-(trifluoromethyl)propyl)-5-methyl-1H-1,2,3-triazol-1-yl}methyl]-2H-chromen-2-one]	298
CCCC(O)(c1cn(Cc2ccc3c(-c4cccc(F)c4)cc(=O)oc3c2)nn1)C(F)(F)F (stereo not drawn) [Example 30, 4-(3-Fluorophenyl)-7-({4-[1-hydroxy-1-(trifluoromethyl)butyl]-1H-1,2,3-triazol-1-yl}methyl)-2H-chromen-2-one]	37
CC[C@](O)(c1cn(Cc2ccc3c(-c4coc(C)n4)cc(=O)oc3c2)nn1)C(F)(F)F [Example 37, (S)-7-({4-[1-hydroxy-1-(trifluoromethyl)propyl]-1H-1,2,3-triazol-1-yl}methyl)-4-(2-methyl-1,3-oxazol-4-yl)-2H-chromen-2-one]	351
CC[C@](O)(c1cn(Cc2ccc3c(-c4ccccc4)cc(C#N)nc3c2)nn1)C(F)(F)F [Example 39, (S)-7-({4-[1-hydroxy-1-(trifluoromethyl)propyl]-1H-1,2,3-triazol-1-yl}methyl)-4-phenylquinoline-2-carbonitrile]	34
CC[C@](O)(c1cn(Cc2ccc3c(-c4cccc(F)c4)cc(C#N)nc3c2)nn1)C(F)(F)F [Example 40, (S)-4-(3-fluorophenyl)-7-({4-[1-hydroxy-1-(trifluoromethyl)propyl]-1H-1,2,3-triazol-1-yl}methyl)quinoline-2-carbonitrile]	54
CC[C@](O)(c1cn(Cc2ccc3c(-c4ccc(F)cc4)cc(C#N)nc3c2)nn1)C(F)(F)F [Example 41, (S)-4-(4-fluorophenyl)-7-({4-[1-hydroxy-1-(trifluoromethyl)propyl]-1H-1,2,3-triazol-1-yl}methyl)quinoline-2-carbonitrile]	51
CCC(O)(CC)c1cn(Cc2ccc3c(-c4ccccc4)cc(C#N)nc3c2)nn1 [Example 43, 7-{[4-(1-ethyl-1-hydroxypropyl)-1H-1,2,3-triazol-1-yl]methyl}-4-phenylquinoline-2-carbonitrile]	275
N#Cc1cc(-c2ccc(F)cc2)c2ccc(Cn3cc(C(O)(C4CC4)C4CC4)nn3)cc2n1 [Example 46, 7-({4-[dicyclopropyl(hydroxy)methyl]-1H-1,2,3-triazol-1-yl}methyl)-4-(4-fluorophenyl)quinoline-2-carbonitrile]	103
N#Cc1cc(-c2cccc(F)c2)c2ccc(Cn3cc(C(O)(C4CC4)C4CC4)nn3)cc2n1 [Example 47, 7-({4-[dicyclopropyl(hydroxy)methyl]-1H-1,2,3-triazol-1-yl}methyl)-4-(3-fluorophenyl)-quinoline-2-carbonitrile]	62
N#Cc1cc(-c2ccccc2)c2ccc(Cn3cc(C(O)(C4CC4)C4CC4)nn3)cc2n1 [Example 48, 7-({4-[dicyclopropyl(hydroxy)methyl]-1H-1,2,3-triazol-1-yl}methyl)-4-phenylquinoline-2-carbonitrile]	82
CC[C@](O)(c1cn(Cc2ccc3c(-c4cc(Cl)cc(Cl)c4)cc(C#N)nc3c2)nn1)C(F)(F)F [Example 57, (S)-4-(3,5-dichlorophenyl)-7-({4-[1-hydroxy-1-(trifluoromethyl)propyl]-1H-1,2,3-triazol-1-yl}methyl)quinoline-2-carbonitrile]	86
CC[C@](O)(c1cn(Cc2ccc3c(-c4cc(F)cc(F)c4)cc(C#N)nc3c2)nn1)C(F)(F)F [Example 58, (S)-4-(3,5-difluorophenyl)-7-({4-[1-hydroxy-1-(trifluoromethyl)propyl]-1H-1,2,3-triazol-1-yl}methyl)quinoline-2-carbonitrile]	52
CC[C@](O)(c1cn(Cc2ccc3c(-c4ccccc4)cc(C(N)=O)nc3c2)nn1)C(F)(F)F [Example 69, (S)-7-({4-[1-hydroxy-1-(trifluoromethyl)propyl]-1H-1,2,3-triazol-1-yl}methyl)-4-phenylquinoline-2-carboxamide]	35
CC[C@](O)(c1cn(Cc2ccc3c(-c4ccc(F)cc4)cc(N(C)C)nc3c2)nn1)C(F)(F)F [Example 87, (S)-2-(1-{[2-(dimethylamino)-4-(4-fluorophenyl)quinolin-7-yl]methyl}-1H-1,2,3-triazol-4-yl)-1,1,1-trifluorobutan-2-ol]	17
CC[C@](O)(c1cn(Cc2ccc3c(-c4ccc(F)cc4)cc(OC)nc3c2)nn1)C(F)(F)F [Example 88, (S)-1,1-trifluoro-2-(1-{[4-(4-fluorophenyl)-2-methoxyquinolin-7-yl]methyl}-1H-1,2,3-triazol-4-yl)butan-2-ol]	41

Reference: patent US7960409B2, “Pharmaceutical phenylquinoline and chromen-2-one triazole compounds” (Merck Sharp & Dohme Corp., priority 2007, dated 2011)
